Drawing on PubChem BioAssay (NCI), this text covers TGI and GI50 for twelve compounds.

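All cell lines were grown in 96-well plates and treated with compound for 48 hours. GI50: concentration for 50% inhibition of growth. TGI marks complete inhibition of growth.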 Where only a bound is given, the exact number is not on record here.

Among the test systems are OVCAR-5 ovarian; HT29 colon; SF-295 CNS; HOP-92 NSCLC; HOP-62 NSCLC; SK-MEL-28 melanoma; HCT-15 colon; RXF 393 renal; MCF7 breast; MDA-MB-231 breast.
Test in all cases: DTP human tumour cell line panel, 48 h

For orientation: TGI means the concentration giving total growth inhibition. For `CCC(=O)O[C@@H]1C2C(OC(C)=O)C34COC(C)([C@@H]3C3C(C[C@]3(C)OC(C)=O)[C@@H](OC(=O)c3ccccc3)C4=O)[C@H](OC(C)=O)[C@@]2(OC(C)=O)C[C@@H]1C` (stereo partly specified), the TGI in the assay on OVCAR-5 ovarian is more than 100 µM; in the assay on HT29 colon, more than 100 µM; in the assay on SF-295 CNS, 48.7 µM; in the assay with HOP-92 NSCLC it was 40.8 µM; in the assay with HOP-62 NSCLC, more than 100 µM; in the assay on SK-MEL-28 melanoma, more than 100 µM. The TGI in the assay with HCT-15 colon amounted to 29.5 µM.

A word on the GI50: it is the concentration at which growth is held to half of that of the control. With `CCCCCCCCSC1=CC(=O)C(OC)=C(OC)C1=O`, the GI50 with RXF 393 renal is 1.61 µM; with OVCAR-5 ovarian, 4.25 µM; with MCF7 breast it was 1.91 µM; in the assay with HT29 colon it was 3.75 µM; with MDA-MB-231 breast, 3.5 µM; with SF-295 CNS, 6.75 µM. The GI50 in the assay with HOP-62 NSCLC is 11.1 µM; in the assay on SK-MEL-28 melanoma, 6.7 µM; with HCT-15 colon, 2.27 µM. The TGI with RXF 393 renal was determined as 3.46 µM; in the assay on OVCAR-5 ovarian, 16.7 µM; in the assay with MCF7 breast, 14.1 µM; in the assay with HT29 colon, 12.6 µM; with MDA-MB-231 breast it was 8.16 µM; with SF-295 CNS, 31.4 µM. Also, the results for the TGI in the assay on HOP-62 NSCLC, with SK-MEL-28 melanoma and with HCT-15 colon were 24.4 µM, 20.3 µM and 8.58 µM, respectively.

For the compound `Cc1ccccc1NC(=O)c1[nH]c(=S)nc(N)c1-c1ccccc1C`, the TGI in the assay with RXF 393 renal, in the assay with OVCAR-5 ovarian, in the assay on HT29 colon, in the assay on SF-295 CNS, in the assay with HOP-92 NSCLC and in the assay on HOP-62 NSCLC was more than 100 µM throughout. Further, the TGI in the assay with SK-MEL-28 melanoma and with HCT-15 colon was more than 100 µM throughout.

`C/C=C/C1(NS(=O)(=O)c2ccc(C)cc2)CCC(C(C)(C)C)CC1` (stereo unspecified): the TGI was 42.3 µM in the assay with RXF 393 renal; 39.5 µM with OVCAR-5 ovarian; 37.9 µM in the assay with HT29 colon; 61.4 µM with SF-295 CNS; 41.6 µM in the assay on HOP-92 NSCLC; 49.7 µM in the assay on HOP-62 NSCLC. In the assay with HCT-15 colon, this compound came in with a concentration for total growth inhibition (TGI) of 93.7 µM.

Regarding `COC(=O)c1c(-c2ccccc2)csc1NC(=O)c1c(-c2ccccc2)noc1C`, the GI50 in the assay with RXF 393 renal was 0.762 µM; in the assay with MCF7 breast, 0.6 µM; in the assay on HT29 colon, 0.399 µM; in the assay with MDA-MB-231 breast, 7.66 µM; in the assay with SF-295 CNS, 0.598 µM; with HOP-62 NSCLC, 4.56 µM. In addition, the GI50 is 1.56 µM with SK-MEL-28 melanoma and 0.0809 µM in the assay with HCT-15 colon. Besides, the TGI with RXF 393 renal was 3.97 µM; in the assay with OVCAR-5 ovarian it was more than 100 µM; with MCF7 breast it was more than 100 µM; in the assay with HT29 colon it was more than 100 µM; in the assay with MDA-MB-231 breast it was more than 100 µM; with SF-295 CNS, more than 21.5 µM. The TGI with HOP-62 NSCLC, with SK-MEL-28 melanoma and in the assay with HCT-15 colon was more than 100 µM each time.

Turning to `COC(=O)/C(C#N)=C1\N=NNN1CCCc1ccccc1`, the TGI with RXF 393 renal, with HT29 colon, in the assay on SF-295 CNS, in the assay with HOP-92 NSCLC, in the assay on SK-MEL-28 melanoma and in the assay on HCT-15 colon was more than 100 µM in each case.

Take `COc1nc2c(nc(N)n2C2OC(CO)C(O)C(O)C2O)c(=O)n1C` (stereo unspecified): the TGI in the assay on RXF 393 renal, with HT29 colon, with SF-295 CNS, with HOP-92 NSCLC, in the assay on HOP-62 NSCLC and in the assay with SK-MEL-28 melanoma was more than 100 µM in each case.

Turning to `CCCNc1nc(-c2ccc(OC)cc2)nc2ccccc12`, the GI50 is 15.4 µM in the assay with RXF 393 renal; 16.4 µM in the assay on OVCAR-5 ovarian; 19.5 µM with MCF7 breast; 15.7 µM in the assay on SF-295 CNS; 9.06 µM with HOP-92 NSCLC; 14.9 µM in the assay on HOP-62 NSCLC. For the same compound, the GI50 was 18.6 µM in the assay on SK-MEL-28 melanoma and 14.3 µM with HCT-15 colon. For the same compound, the TGI in the assay on RXF 393 renal was 35.5 µM; in the assay with OVCAR-5 ovarian, 43 µM; in the assay on MCF7 breast it was more than 100 µM; with SF-295 CNS, 32.2 µM; in the assay on HOP-92 NSCLC, 29.3 µM; in the assay on HOP-62 NSCLC it was 31.2 µM. Also, the TGI with SK-MEL-28 melanoma came to 53.6 µM; in the assay on HCT-15 colon it was 31.9 µM.

As to `Cc1cc2c(=O)cc(-c3ccc(Cl)cc3)oc2c(C(=O)O)c1C`, the TGI in the assay with RXF 393 renal, in the assay with OVCAR-5 ovarian, with HT29 colon, in the assay with SF-295 CNS, with SK-MEL-28 melanoma and with HCT-15 colon was more than 100 µM in each case.

Regarding `Cc1cc(Cl)ccc1N1C(=O)C(=O)C(c2nc3ccccc3s2)C(=O)C1=O`, the TGI with OVCAR-5 ovarian, in the assay with HT29 colon, with SF-295 CNS, in the assay on HOP-92 NSCLC, with HOP-62 NSCLC and with SK-MEL-28 melanoma was more than 100 µM in each case. Moreover, the concentration for total growth inhibition (TGI) with HCT-15 colon was more than 100 µM.

For the compound `O=C(Nc1ccccc1Cl)c1ccc(NC2=C(Cl)C(=O)N(Cc3ccccc3)C2=O)cc1`, the GI50 with RXF 393 renal is 18.4 µM; in the assay on OVCAR-5 ovarian, more than 100 µM; in the assay on MCF7 breast, 17.2 µM; in the assay with HT29 colon, 44.8 µM; with MDA-MB-231 breast, 31.3 µM; in the assay with SF-295 CNS, 26.6 µM. Besides, the results for the GI50 in the assay with HOP-62 NSCLC, in the assay with SK-MEL-28 melanoma and with HCT-15 colon were 41.2 µM, 43 µM and 15 µM, respectively. Also, the concentration for total growth inhibition (TGI) in the assay with RXF 393 renal is 38.2 µM; in the assay with OVCAR-5 ovarian, more than 100 µM; with MCF7 breast, 36 µM; in the assay on HT29 colon it was more than 100 µM; in the assay with MDA-MB-231 breast it was 91.9 µM; in the assay on SF-295 CNS, more than 100 µM. Moreover, the TGI with HOP-62 NSCLC was more than 100 µM; in the assay with SK-MEL-28 melanoma it was more than 100 µM; in the assay on HCT-15 colon, 29.2 µM.

Regarding `O=C1c2cc3c(cc2-c2c1c1ccc([N+](=O)[O-])cc1c(=O)n2CCCCl)OCO3`, the GI50 in the assay with OVCAR-5 ovarian was 0.634 µM; with MCF7 breast it was 0.333 µM; in the assay on HT29 colon, 1.07 µM; in the assay on SF-295 CNS, 0.066 µM; in the assay on HOP-62 NSCLC, 0.383 µM; in the assay on SK-MEL-28 melanoma it was 0.525 µM. Further, the GI50 with HCT-15 colon is 2.09 µM. For the same compound, the TGI in the assay with OVCAR-5 ovarian is more than 100 µM; in the assay with HT29 colon, more than 100 µM; in the assay with MDA-MB-231 breast, more than 24.9 µM; in the assay with SF-295 CNS it was more than 100 µM; in the assay on HOP-92 NSCLC it was more than 100 µM; in the assay on HOP-62 NSCLC it was more than 100 µM. Further, the TGI with SK-MEL-28 melanoma and in the assay with HCT-15 colon was more than 100 µM each time.
